Test results taken from ChEMBL document CHEMBL1124423, “Synthesis of highly mu and delta opioid receptor selective peptides containing a photoaffinity group” (J Med Chem, 1989).

Legend:
[1] = target: Opioid receptors; mu & delta (Homo sapiens) (UniProt P41143+P35372); assay: Selectivity ratio for binding to mu vs delta opioid receptor; format: protein assay
Cavia porcellus [2] = organism: Cavia porcellus; assay: Affinity of mu receptor selective analogue in Guinea pig ileum assay expressed as pA2; format: functional; conditions: read-out: pA2 (converted)
Mus musculus [3] = organism: Mus musculus; assay: Concentration that reduced the response by 50% by delta receptor selective analogue was assessed in mouse vas deferens assay; NA is no activity at 10e-5 M; format: functional
[4] = target: Delta-type opioid receptor (Rattus norvegicus, UniProt P33533); assay: Binding potency of compound in competition with [3H]DPDPE for Opioid receptor delta 1 tested in rat brain membrane; format: cell membranes
Mu-type opioid receptor = Mu-type opioid receptor (Rattus norvegicus, UniProt P33535); assay: Binding potency of compound in competition with [3H]CTOP for Opioid receptor mu 1 tested in rat brain membrane; format: cell membranes
Cavia porcellus [5] = organism: Cavia porcellus; assay: Inhibition of response by delta receptor selective analogue at 3000 nM was assessed in Guinea pig ileum assay; format: functional
Cavia porcellus [6] = organism: Cavia porcellus; assay: Inhibition of response by delta receptor selective analogue at 10000 nM was assessed in Guinea pig ileum assay; format: functional
Mus musculus [7] = organism: Mus musculus; assay: Concentration that reduced the response by 50% by delta selective analogue was assessed in mouse vas deferens assay; format: functional
Mus musculus [8] = organism: Mus musculus; assay: Concentration that reduced the response by 50% by delta selective analogue was assessed in mouse vas deferens assay; NA is no activity at 10e-5 M; format: functional
Cavia porcellus [9] = organism: Cavia porcellus; assay: Concentration that reduced the response by 50% by delta receptor selective analogue was assessed in Guinea pig ileum assay; format: functional
Cavia porcellus [10] = organism: Cavia porcellus; assay: Inhibition of response by delta receptor selective analogue at 300 nM was assessed in Guinea pig ileum assay; format: functional

Chain of Mu-type opioid receptor (P33535 whole entry): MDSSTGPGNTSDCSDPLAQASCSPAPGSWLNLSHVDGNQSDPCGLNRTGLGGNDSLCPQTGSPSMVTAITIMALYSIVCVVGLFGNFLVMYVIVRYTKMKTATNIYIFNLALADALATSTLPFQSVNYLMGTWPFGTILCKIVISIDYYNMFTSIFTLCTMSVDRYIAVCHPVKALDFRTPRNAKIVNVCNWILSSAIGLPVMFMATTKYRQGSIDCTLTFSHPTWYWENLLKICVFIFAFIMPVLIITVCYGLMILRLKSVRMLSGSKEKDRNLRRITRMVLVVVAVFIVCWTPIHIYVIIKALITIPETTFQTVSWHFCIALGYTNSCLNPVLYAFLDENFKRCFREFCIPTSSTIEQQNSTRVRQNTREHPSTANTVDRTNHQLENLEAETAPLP
Chain of Delta-type opioid receptor (P33533 whole entry): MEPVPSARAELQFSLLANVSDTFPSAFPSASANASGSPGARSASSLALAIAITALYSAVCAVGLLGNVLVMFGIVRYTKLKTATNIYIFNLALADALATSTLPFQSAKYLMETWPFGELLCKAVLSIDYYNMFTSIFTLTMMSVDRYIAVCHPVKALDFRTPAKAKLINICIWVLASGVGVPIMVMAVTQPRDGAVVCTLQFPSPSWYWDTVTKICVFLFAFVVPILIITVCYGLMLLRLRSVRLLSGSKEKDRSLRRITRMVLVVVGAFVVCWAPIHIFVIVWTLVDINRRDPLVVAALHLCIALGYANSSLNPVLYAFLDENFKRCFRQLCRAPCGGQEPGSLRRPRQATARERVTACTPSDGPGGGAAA
Chain of Opioid receptors; mu & delta (Homo sapiens) (P35372 whole entry, looked up): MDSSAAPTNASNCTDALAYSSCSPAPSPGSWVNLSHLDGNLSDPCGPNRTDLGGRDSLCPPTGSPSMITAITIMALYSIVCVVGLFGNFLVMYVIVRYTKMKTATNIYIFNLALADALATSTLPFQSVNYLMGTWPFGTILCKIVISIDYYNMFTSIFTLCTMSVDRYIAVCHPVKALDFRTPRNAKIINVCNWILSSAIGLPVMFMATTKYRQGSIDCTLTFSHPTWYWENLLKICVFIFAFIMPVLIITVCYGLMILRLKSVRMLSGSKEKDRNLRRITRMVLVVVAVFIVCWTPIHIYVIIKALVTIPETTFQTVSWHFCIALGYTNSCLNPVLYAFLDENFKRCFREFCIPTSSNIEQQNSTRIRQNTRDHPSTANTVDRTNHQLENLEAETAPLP
Chain of Opioid receptors; mu & delta (Homo sapiens) (P41143 whole entry, looked up): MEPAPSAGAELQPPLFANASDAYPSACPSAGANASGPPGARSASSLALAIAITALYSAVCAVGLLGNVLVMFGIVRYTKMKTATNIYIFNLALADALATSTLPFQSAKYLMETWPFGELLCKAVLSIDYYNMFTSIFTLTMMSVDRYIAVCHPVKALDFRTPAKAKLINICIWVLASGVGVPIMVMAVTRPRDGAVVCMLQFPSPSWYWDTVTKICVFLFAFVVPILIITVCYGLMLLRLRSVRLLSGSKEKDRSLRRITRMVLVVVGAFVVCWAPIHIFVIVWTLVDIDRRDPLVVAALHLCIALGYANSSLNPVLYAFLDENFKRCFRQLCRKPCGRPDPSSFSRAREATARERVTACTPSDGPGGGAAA

Structure (SMILES): C[C@@H](O)[C@H](NC(=O)[C@@H]1NC(=O)[C@H]([C@@H](C)O)NC(=O)[C@@H](CCCCN)NC(=O)[C@@H](Cc2c[nH]c3ccccc23)NC(=O)[C@@H](Cc2ccc(O)cc2)NC(=O)[C@H](NC(=O)[C@@H](N)Cc2ccccc2)CSSC1(C)C)C(=O)O
- Ratio [1]: 3230

Structure (SMILES): C[C@@H](O)[C@H](NC(=O)[C@H]1NC(=O)[C@H]([C@@H](C)O)NC(=O)[C@H](CCCCN)NC(=O)[C@@H](Cc2c[nH]c3ccccc23)NC(=O)[C@H](Cc2ccc(O)cc2)NC(=O)[C@@H](NC(=O)[C@H](N)Cc2ccccc2)CSSC1(C)C)C(=O)O
- Kb (Cavia porcellus [2]): 0.0794 µM
- IC50 (Mus musculus [3]): Not Active
- IC50 [4]: 8.4 µM
- IC50 (Mu-type opioid receptor): 0.003 µM

Structure (SMILES): C[C@@H](O)[C@H](NC(=O)[C@H]1NC(=O)[C@H]([C@@H](C)O)NC(=O)[C@H](CCCCN)NC(=O)[C@@H](Cc2c[nH]c3ccccc23)NC(=O)[C@H](Cc2ccc(N)cc2)NC(=O)[C@@H](NC(=O)[C@H](N)Cc2ccccc2)CSSC1(C)C)C(N)=O [listing 1 of 2 here]
- inhibition at 3 µM (Cavia porcellus [5]): 5%

Structure (SMILES): CC1(C)SSC(C)(C)[C@@H](NC(=O)[C@@H](N)Cc2ccc(O)cc2)C(=O)NCC(=O)N[C@@H](Cc2ccc(N=[N+]=[N-])cc2)C(=O)N[C@H]1C(=O)O [listing 1 of 2 here]
- inhibition at 10 µM (Cavia porcellus [6]): 6%

Structure (SMILES): C[C@@H](O)[C@H](NC(=O)[C@@H]1NC(=O)[C@H]([C@@H](C)O)NC(=O)[C@@H](CCCCN)NC(=O)[C@@H](Cc2c[nH]c3ccccc23)NC(=O)[C@@H](Cc2ccc(N=[N+]=[N-])cc2)NC(=O)[C@H](NC(=O)[C@@H](N)Cc2ccccc2)CSSC1(C)C)C(N)=O
- Ratio [1]: 412

Structure (SMILES): CC1(C)SSC(C)(C)[C@@H](NC(=O)[C@@H](N)Cc2ccc(O)cc2)C(=O)NCC(=O)N[C@@H](Cc2ccccc2)C(=O)N[C@H]1C(=O)O
- IC50 (Mus musculus [7]): 0.0043 µM

Structure (SMILES): C[C@@H](O)[C@H](NC(=O)[C@H]1NC(=O)[C@H]([C@@H](C)O)NC(=O)[C@H](CCCCN)NC(=O)[C@@H](Cc2c[nH]c3ccccc23)NC(=O)[C@H](Cc2ccc(N=[N+]=[N-])cc2)NC(=O)[C@@H](NC(=O)[C@H](N)Cc2ccccc2)CSSC1(C)C)C(N)=O [listing 1 of 2 here]
- IC50 [4]: 20 µM
- IC50 (Mu-type opioid receptor): 0.049 µM
- IC50 (Mus musculus [8]): Not Active

Structure (SMILES): CC1(C)SSC(C)(C)[C@@H](NC(=O)[C@@H](N)Cc2ccc(O)cc2)C(=O)NCC(=O)N[C@@H](Cc2ccc(N)cc2)C(=O)N[C@H]1C(=O)O
- IC50 (Cavia porcellus [9]): > 10 µM
- IC50 (Mus musculus [7]): 0.138 µM

Structure (SMILES): CC1(C)SSC(C)(C)[C@@H](NC(=O)[C@@H](N)Cc2ccc(O)cc2)C(=O)NCC(=O)N[C@@H](Cc2ccc(N=[N+]=[N-])cc2)C(=O)N[C@H]1C(=O)O [listing 2 of 2 here]
- IC50 (Mus musculus [7]): 0.0095 µM

Structure (SMILES): C[C@@H](O)[C@H](NC(=O)[C@H]1NC(=O)[C@H]([C@@H](C)O)NC(=O)[C@H](CCCCN)NC(=O)[C@@H](Cc2c[nH]c3ccccc23)NC(=O)[C@H](Cc2ccc(N=[N+]=[N-])cc2)NC(=O)[C@@H](NC(=O)[C@H](N)Cc2ccccc2)CSSC1(C)C)C(N)=O [listing 2 of 2 here]
- inhibition at 0.3 µM (Cavia porcellus [10]): 8%

Structure (SMILES): C[C@@H](O)[C@H](NC(=O)[C@H]1NC(=O)[C@H]([C@@H](C)O)NC(=O)[C@H](CCCCN)NC(=O)[C@@H](Cc2c[nH]c3ccccc23)NC(=O)[C@H](Cc2ccc(N)cc2)NC(=O)[C@@H](NC(=O)[C@H](N)Cc2ccccc2)CSSC1(C)C)C(N)=O [listing 2 of 2 here]
- IC50 [4]: > 10 µM
- IC50 (Mu-type opioid receptor): 0.5 µM
- IC50 (Mus musculus [8]): Not Active

Structure (SMILES): C[C@@H](O)[C@H](NC(=O)[C@@H]1NC(=O)[C@H]([C@@H](C)O)NC(=O)[C@@H](CCCCN)NC(=O)[C@@H](Cc2c[nH]c3ccccc23)NC(=O)[C@@H](Cc2ccc(N)cc2)NC(=O)[C@H](NC(=O)[C@@H](N)Cc2ccccc2)CSSC1(C)C)C(N)=O
- Ratio [1]: > 20
